Experimental data reported in patent US8354265B2, “Chemicals promoting the growth of N-acylhomoserine lactone-degrading bacteria” (Centre National de la Recherche Scientifique, priority 2007, dated 2013).
“Also recorded” adds a separate entry of the source.

Tests used:
[1] = system: bacteria recovered from the consortia; assay: NAHL production and inactivation by isolates recovered from the consortia, with rrs identification; assay type: cell-based; settings: for NAHL-producing bacteria among isolates of the consortia: 280 isolates from 280 independent enrichments
soil bacterial consortia = assay: NAHL (C6-HSL, OC8-HSL) inactivation by soil consortia enriched on second set of compounds; assay type: cell-based; settings: C6-HSL 25 μM or OC8-HSL 200 nM
Protocol: FIG. 4: Kinetics of NAHL inactivation by bacterial consortia. (A) NAHL is C6-HSL with an initial concentration of 25 μM (B) NAHL is 3-oxo-octanoylhomoserine lactone (OC8-HSL), with an initial concentration of 200 nM. The different bacterial consortia obtained after enrichment on the indicated compounds as a sole carbon source (mannitol is abbreviated as Man) were tested to for their capacity to inactivate NAHL signal. At each time (0, 1, 3 and 5 hrs), the uninoculated control (C) was used to estimate the percentage of residual NAHL.
Non sterile soil from the CNRS experimental field (Mérantaise) at Gif-sur-Yvette (France) was mixed with sterile sand Loire River and distributed into pots (20 cm in diameter). Some of them were sown with disinfected seeds of Nicotiana tabacum cv. Samson. Pots were randomly placed in the greenhouse (CNRS, Gif-sur-Yvette), under a long day conditions (16 h) at 17° C. (night) and 24° C. (day), and watered daily with tap water. One gram of unplanted or rhizospheric (3-months aged plants) soil was resuspended in 10 mL of sterile 0.8% NaCl. […] After a 3-days incubation at 25° C. under shaking (180 rpm), the cell cultures were diluted (1/50) into fresh AB media for an additional 2-days enrichment step. […]

[2] = system: bacterial consortia from unplanted soil; assay: C6-HSL inactivation by bacterial consortia enriched from unplanted soil on the compound as sole carbon source; assay type: cell-based; settings: soil and rhizospheric samples; among 25 assayed molecules
[3] = system: NAHL-degrading rhizobacteria; assay: Diversity of NAHL-degrading rhizobacteria after HTN treatments, rrs sequencing (Table 3); assay type: in vivo, Solanum tuberosum
From the text: The 5′-end of the rrs gene was amplified with primers pA (5′-[…]) (SEQ ID NO:1) and 518r (5′-[…]) (SEQ ID NO:2), and sequenced with pA primer by GenomeExpress (Meylan, France). At least 400 bp were submitted to the NCBI database. Although some sequence comparisons authorized identification of isolates at the species level, only the genus level was retained in this study for homogeneity.
To analyze the impact of HTN on the diversity of NAHL-degrading strains, 50 NAHL-degrading strains were sampled from the third set of experiments, at the beginning of the experiments (D0) and after 14 and 42 days. The isolates were identified by rrs-sequencing (Table 3). At D0, all of the 5 NAHL-degrading isolates analyzed were identified as Agrobacterium. However, at D14 and D42, the Rhodococcus isolates dominated in treated batches, in which Delftia and Sinorhizobium were also detected

[4] = system: Erwinia carotovora subsp. atroseptica 6276; assay: Maceration assay on potato tubers (biocontrol activity of consortia); assay type: in vivo; settings: potato tubers infected with mix of Erwinia carotovora 6276 and consortia
From the text: FIG. 6: Maceration assay on potato tubers.
(§1) The Mannitol-, 6CL-, GCL-, and HTN-consortia were compared for their capacity to inactivated OC8-HSL, the major NAHL produced by the plant pathogen Erwinia carotovora subsp. atroseptica 6276, as well as for their biocontrol activity against this pathogen in potato maceration assay.

[5] = system: bacterial consortia originating from rhizospheric soil; assay: C6-HSL inactivation by bacterial consortia enriched from rhizospheric soil; assay type: cell-based
bacterial consortia = assay: Inactivation of C6-HSL and OC8-HSL by mannitol, 6CL, GCL and HTN consortia; assay type: cell-based
From the text: as §1

[6] = system: NAHL-degrading bacteria of potato rhizosphere; assay: HTN treatment on planted batches (FIG. 9); assay type: in vivo, Solanum tuberosum
From the text: FIG. 9: Percentage of NAHL-degrading and NAHL-producing strains in potato rhizosphere after treatment with HTN. The percentage of NAHL degraders and NAHL producers was estimated among cultivable bacteria (cfu/g of fresh weight of roots), which were recovered from potato rhizospheres before the treatment (D0; white columns), 14 days (D14; dark grey columns), 28 days (D28; black columns) after the first treatment and 42 days after the first treatment, i.e., 14 days after the second treatment (D42; grey columns). The letters indicate statistically different values (Student's t-test; 0.05).
The non sterile batches (40×60×8 cm) contained 13 L of the nutritive solution Hydrobloom (Cellmax, UK) with Nitrogen at 0.80 g/L, Phosphore at 0.56 g/L and Potassium at 1.48 g/L as major components. The solution was diluted from a concentrated stock solution (×250) with non sterile water from the public water system. One hundred plants of Solanum tuberosum var. Allians, which were recovered from cultures performed under sterile conditions, were placed into holes (3 cm space to each other) of batch covers. […] Three samples were analyzed from each batch at each time D0, D14 and D28; from each sample, thirty isolates from TSA plates and thirty fluorescent isolates from King B plates were individually tested from production and inactivation of NAHL signal. […]

SMILES | NAHL-producing bacteria among isolates of the consortia [1] | efficiency for obtaining NAHL-degrading consortia (ranking) (soil bacterial consortia) | growth stimulation of NAHL-degrading bacteria after enrichment procedures [2] | NAHL-inactivating bacteria recovered from consortia [1] | biocontrol activity of the consortia against E. carotovora 6276 [4] | activity of consortia towards C6-HSL (ranking) [5] | further results
O=C1CCCO1 [GBL, gamma-butyrolactone] | 12 % of the tested strains |  |  |  |  |  | 
CCCCC1CCC(=O)O1 (centres unmarked) [GOL, gamma-octalactone] |  | most efficient | stimulated the growth of NAHL-degrading bacteria |  |  |  | 
CCCC1CCC(=O)O1 (centres unmarked) [HTN, 4-heptanolide] | none | most efficient | stimulated the growth of NAHL-degrading bacteria | recovered | biocontrol activity was observed; also recorded: showed biocontrol activity | the most active | NAHL-degrading isolates belonging to the Rhodococcus genus ([1]; HTN consortia, rrs sequence): All seventeen; Rhodococcus isolates among NAHL-degrading isolates in treated batches ([3]; D14 and D42): dominated; rrs-identified NAHL-degraders: Delftia ([3]; D 14 and D 42, 0.1 mL/L): 1; rrs-identified NAHL-degraders: Rhodococcus ([3]; D 14 and D 42, 0.1 mL/L): 16; rrs-identified NAHL-degraders: Rhodococcus ([3]; D 14 and D 42, 0.4 mL/L): 27; rrs-identified NAHL-degraders: Sinorhizobium ([3]; D 14 and D 42, 0.4 mL/L): 1; speed of C6-HSL signal inactivation versus Mannitol consortia (bacterial consortia): inactivated more rapidly; speed of OC8-HSL signal inactivation versus Mannitol consortia (bacterial consortia): inactivated more rapidly; ability to stimulate the growth of NAHL-degrading bacteria ([6]; 0.1 and 0.4 mL/L, second treatment at day 28, D14, D28, D42): confirmed the ability of HTN to stimulate the growth of NAHL-degrading bacteria; percentage of NAHL-degrading bacteria among total cultivable bacteria ([6]; applied to hydroponic plant cultures (FIG. 9)): significant increase
OC[C@@H](O)[C@@H](O)[C@H](O)[C@H](O)CO [Mannitol, mannitol, reference compound] | 10 % of the tested strains |  |  |  | did not |  | 
OCC1CCCO1 (centres unmarked) [THA, tetrahydrofurfuryl alcohol] | 13 % of the tested strains |  |  | recovered |  | the most active | 
C1CCOC1 [THF, tetrahydrofurane] | 41 % of the tested strains |  |  | recovered |  |  | 
